Test results reported in patent US20150258057A1, “FATTY ACID DERIVATIVES FOR TREATING INFECTIOUS DISEASES” (IMARKO RESEARCH S.A., priority 2014, published 2015).

Assays:
Experiment in all cases: diffusion method in agar medium (zone of inhibition)
Format in all cases: cell-based
Bifidobacterium = conditions: for inhibition of growth (in words): Table 2
Experimental: (§1) The antibiotic activity of zinc and copper soaps (salts of copper caprylate, caprate, caproate and laurate; and salts of zinc caprylate, caprate, caproate and laurate) was measured according to the diffusion method in agar medium, the protocol of which is detailed below.
(§2) This method consists in depositing on inoculated agar culture medium sterile absorbent paper discs impregnated with the antibiotic solution to be examined.
(§3) The activity of an antibiotic is estimated by comparing the inhibition of growth of sensitive microorganisms caused respectively by known concentrations of the antibiotic to be examined and of a reference substance.
(§4) The diluents and culture media used are: • 0.85% physiological saline (AES, reference PHYW-AEB110389), • buffered peptone water (bioMerieux, reference 42111), • Sabouraud glucose agar with chloramphenicol (bioMerieux, reference 42620), • Neutral MRS agar pH=6.4 (AES, reference AEB621756N), • Trypcase soy agar (bioMerieux, reference 41466), • Cetrimide agar (bioMerieux, reference 43565).
(§5) The agar culture medium is poured into a petri dish. Once solidified, the surface of the agar is inoculated in a layer with the selected microorganism. Then fitter paper discs, 6.6 mm in diameter, impregnated with the various solutions to be tested are placed on the surface. The petri dishes are left at room temperature for about 1 hour to allow the substances to diffuse in the agar.
(§6) The cultures are then incubated at 32.5° C.±2.5° C. The agar media and the incubation conditions are suited to the inoculated microorganism.
(§7) The diameter of the zone of inhibition is a function of the concentration, diffusion and activity of the tested substance placed on the filter.

[1] = system: Lactobacillus acidophilus; conditions: for inhibition of growth (in words): Table 2
Experimental: as §1, §2, §3, §4, §5, §6, §7

Lactobacillus plantarum = conditions: for inhibition of growth (in words): Table 2
Experimental: as §1, §2, §3, §4, §5, §6, §7

Lactobacillus paracasei = conditions: for inhibition of growth (in words): Table 2
Experimental: as §1, §2, §3, §4, §5, §6, §7

[2] = system: Bacillus coagulans (spores); conditions: for inhibition of growth (in words): Table 2
Experimental: as §1, §2, §3, §4, §5, §6, §7

Saccharomyces cerevisiae = conditions: for inhibition of growth (in words): Table 2
Experimental: as §1, §2, §3, §4, §5, §6, §7

Pseudomonas putida = conditions: 200 mg in 2 ml of DMSO, disc 6.6 mm
Experimental: as §1, §2, §3, §4, §5, §6, §7

[3] = 200 mg in 2 ml of DMSO, disc 6.6 mm

## CCCCCCCCCCCC(=O)OCC(O)CO (stereo not shown) [Glycerol monolaurate]
Bifidobacterium
  inhibition of growth (in words): no inhibition
[1]
  inhibition of growth (in words): inhibition
Lactobacillus plantarum
  inhibition of growth (in words): no inhibition
Lactobacillus paracasei
  inhibition of growth (in words): no inhibition
[2]
  inhibition of growth (in words): inhibition
Saccharomyces cerevisiae
  inhibition of growth (in words): no inhibition

## CCCCCCCC(=O)OCC(O)CO (stereo not shown) [Glyceryl caprylate]
Bifidobacterium
  inhibition of growth (in words): inhibition
[1]
  inhibition of growth (in words): inhibition
Lactobacillus plantarum
  inhibition of growth (in words): inhibition
Lactobacillus paracasei
  inhibition of growth (in words): inhibition
[2]
  inhibition of growth (in words): inhibition
Saccharomyces cerevisiae
  inhibition of growth (in words): inhibition

## CCCCCCCC(=O)Oc1cc(C)ccc1C(C)C [Thymol caprylate]
Pseudomonas putida
  Diameter of inhibition: 7.86 mm
Bifidobacterium; [3]
  Diameter of inhibition: 9 mm
[1]; [3]
  Diameter of inhibition: 8.2 mm
Lactobacillus plantarum; [3]
  Diameter of inhibition: 6.9 mm
Lactobacillus paracasei; [3]
  Diameter of inhibition: 7.75 mm
[2]; [3]
  Diameter of inhibition: 8.5 mm
Saccharomyces cerevisiae; [3]
  Diameter of inhibition: 7.28 mm
